In data set [1] the target is T1, human B-Raf V600E (Homo sapiens, UniProt P15056, V600E).
T1 construct: B-RafV600E (residues 433-726 containing V600E mutation) containing an N-terminal purification tag is expressed and purified; made in house
In words: Enzymatic assay of B-Raf V600E kinase activity (Raf/MEK1 ATPase, coupled PK/LDH, A340). As to conditions: read-out: Enzyme IC50, nM B-Raf V600E. The data set is classed as biochemical. Here is the method:
Test compounds are evaluated for their inhibitory activities against one or more of human wild type B-Raf, human wild type C-Raf, human B-Raf V600E, human B-Raf V600E+T529I or human B-Raf V600E+G468A. T529I is a threonine to isoleucine B-Raf gatekeeper mutation and G468A is a B-Raf secondary mutation at G1403C in exon 11. The enzymatic assays of B-Raf, C-Raf and B-Raf mutations evaluate a property of Raf and MEK1 complex, which in the presence of ATP, catalyzes an enhanced ATP hydrolysis (Rominger, et al, Arch. Biochem. Biophys. 2007, 464: 130-137; US Patent Publication No. 2006/0211073). The ADP formed is monitored by the well-known coupled PK/LDH (pyruvate kinase/lactate dehydrogenase) system in the form of NADH oxidation, which can be monitored and detected spectrophotometrically by absorbance at 340 nm (A340; for principal of the method see Schindler et al, Science, 2000, 289: 1938-1942). Raf activated MEK1 ATPase activity is a property shared by all forms of Raf proteins.
B-RafV600E (residues 433-726 containing V600E mutation) containing an N-terminal purification tag is expressed and purified essentially as described previously (Wan et al, Cell, 2004, 116, 855-867).
Test compounds are evaluated for their inhibitory activities against one or more of wild type B-Raf, wild type C-Raf, B-Raf V600E, B-Raf V600E+T529I and B-Raf V600E+G468A. T529I is a B-Raf gatekeeper mutation and G468A is a B-Raf secondary mutation. The enzymatic assays of B-Raf, C-Raf and B-Raf mutations evaluate a property of Raf and MEK1 complex, which in the presence of ATP, catalyzes an enhanced ATP hydrolysis (Rominger, et al, Arch. Biochem. Biophys. 2007, 464: 130-137). The ADP formed is monitored by the well-known coupled PK/LDH (pyruvate kinase/lactate dehydrogenase) system in the form of NADH oxidation, which can be monitored and detected by absorbance at 340 nm (A340; for principal of the method see Schindler et al, Science, 2000, 289: 1938-1942). Raf activated MEK1 ATPase activity is a property shared by all forms of Raf proteins. In the B-Raf wild type enzymatic assay, the reaction mixture contains 1.2 nM B-Raf, 30 nM MEK1, 1000 uM ATP, 3.5 units (per 100 ul) of PK, 5 units (per 100 ul) of LDH, 1 mM phosphoenol pyruvate (PEP), and 280 uM of NADH. In the C-Raf assay, the reaction mixture contains 0.6 nM C-Raf, 26 nM MEK1, 2000 uM ATP, and the same amount of PK, LDH, PEP and NADH as above. In the B-Raf V600E assay, the reaction mixture contains […] B-Raf V600E, 26 nM MEK1, 200 uM ATP and the same amount of PK, LDH, PEP and NADH as above. In the B-RafV600E+T529I assay, the reaction mixture contains 6.2 nM B-Raf V600E+T529I, 30 nM MEK1, 200 uM ATP and the same amount of PK, LDH, PEP and NADH as above. In the B-Raf V600E+G468A assay, the reaction mixture contains 3.5 nM B-Raf, 30 nM MEK1, 200 uM ATP and the same amount of PK, LDH, PEP and NADH as above. All assays are started by mixing the above mixture with test compound and monitoring at A340 continuously for approximately 5 hr. […] In the aforementioned assays, the enzyme constructs can be screened prior to or after cleavage of the N-terminal purification tag.

For data set [2], the target named is T2, human wild type c-KIT (Homo sapiens, UniProt P10721).
T2 construct: GST (N); made in house
In words: Enzymatic assay of c-Kit kinase activity (poly E4Y phosphorylation, coupled PK/LDH). The format is biochemical. An excerpt: c-Kit is an important oncogene, and its overexpression and genetic mutations often occur in melanoma and gastrointestinal stromal tumor (GIST) patients. In the c-Kit enzymatic assay, the phosphorylation of poly E4Y by ATP catalyzed by human c-Kit is monitored spectrophotometrically. The ADP produced from the kinase reaction is coupled to pyruvate kinase/lactate dehydrogenase (PK/LDH) reactions where NAD is formed from pyruvate and NADH. NADH can be detected by absorbance at 340 nm, as described above for enzymatic assays of kinase activities of B-Raf, C-Raf and B-Raf mutations.
The assay reaction mixture includes 6 nM human wild type c-KIT, 1 mg/mL Poly (Glu,Tyr) (Sigma), 1 mM Phosphoenol-pyruvate, 280 μM NADH, 5 U/3.5 U (per 100 ul) Pyruvate Kinase/Lactate Dehydrogenase, 85 mM Tris, pH 7.5, 17 mM MgCl2, 0.0042% Triton® X-100, 0.005% BSA, 1% DMSO. Test compound is incubated with the reaction mixture for 0.5 hour before adding 200 μM ATP to start the reaction at 30° C.

In data set [3] the test system is A375 cells. The data set can be described thus: A375 cell proliferation assay (CellTiter-Blue/resazurin). As to conditions: Homo sapiens, A-375, V600E mutation, read-out: Cell Proliferation Inhibition IC50, nM A375. The data set is classed as cell-based. Here is the method: A375 cells (catalog #CRL-1619) are obtained from the American Type Culture Collection (ATCC, Manassas, Va.). Briefly, cells are grown in DMEM High Glucose supplemented with 10% characterized fetal bovine serum (Invitrogen, Carlsbad, Calif.) and 1% Penicillin/Streptomycin/L-Glutamine at 37 degrees Celsius, 5% CO2, and 95% humidity. Cells are allowed to expand until reaching 70-95% confluency at which point they are subcultured or harvested for assay use. A serial dilution of test compound is dispensed into a 384-well black clear bottom plate in triplicate. Six hundred twenty-five cells are added per well in 50 μL complete growth medium in the 384-well plate. Plates are incubated for 67 hours at 37 degrees Celsius, 5% CO2, and 95% humidity. At the end of the incubation period, 10 μL of a 440 μM solution of resazurin (Sigma, St. Louis, Mo.) in PBS is added to each well of the plate and plates are incubated for an additional 5 hours at 37 degrees Celsius, 5% CO2, and 95% humidity. Plates are read on a Synergy2 reader (Biotek, Winooski, Vt.) using an excitation of 540 nm and an emission of 600 nm. Data is analyzed using Prism software (Graphpad, San Diego, Calif.) to calculate IC50 values.
The A375, HT-29, and Colo-205 cells (ATCC) harbor a V600E mutation.
(In general: Alamar Blue is a resazurin reagent that responds to reducing activity.)

The subject of data set [4] is A375res cells.
Data set [5] concerns A375res cells. The data set can be described thus: Proliferation assay in vemurafenib-resistant melanoma cells A375res. As to conditions: Homo sapiens, 72 h, read-out: absolute IC50 values.

From patent publication US9334267B2, “RAF inhibitor compounds” (Deciphera Pharmaceuticals, LLC, priority 2012, dated 2016) come the findings set out here.

T2 sequence (P10721 26-976): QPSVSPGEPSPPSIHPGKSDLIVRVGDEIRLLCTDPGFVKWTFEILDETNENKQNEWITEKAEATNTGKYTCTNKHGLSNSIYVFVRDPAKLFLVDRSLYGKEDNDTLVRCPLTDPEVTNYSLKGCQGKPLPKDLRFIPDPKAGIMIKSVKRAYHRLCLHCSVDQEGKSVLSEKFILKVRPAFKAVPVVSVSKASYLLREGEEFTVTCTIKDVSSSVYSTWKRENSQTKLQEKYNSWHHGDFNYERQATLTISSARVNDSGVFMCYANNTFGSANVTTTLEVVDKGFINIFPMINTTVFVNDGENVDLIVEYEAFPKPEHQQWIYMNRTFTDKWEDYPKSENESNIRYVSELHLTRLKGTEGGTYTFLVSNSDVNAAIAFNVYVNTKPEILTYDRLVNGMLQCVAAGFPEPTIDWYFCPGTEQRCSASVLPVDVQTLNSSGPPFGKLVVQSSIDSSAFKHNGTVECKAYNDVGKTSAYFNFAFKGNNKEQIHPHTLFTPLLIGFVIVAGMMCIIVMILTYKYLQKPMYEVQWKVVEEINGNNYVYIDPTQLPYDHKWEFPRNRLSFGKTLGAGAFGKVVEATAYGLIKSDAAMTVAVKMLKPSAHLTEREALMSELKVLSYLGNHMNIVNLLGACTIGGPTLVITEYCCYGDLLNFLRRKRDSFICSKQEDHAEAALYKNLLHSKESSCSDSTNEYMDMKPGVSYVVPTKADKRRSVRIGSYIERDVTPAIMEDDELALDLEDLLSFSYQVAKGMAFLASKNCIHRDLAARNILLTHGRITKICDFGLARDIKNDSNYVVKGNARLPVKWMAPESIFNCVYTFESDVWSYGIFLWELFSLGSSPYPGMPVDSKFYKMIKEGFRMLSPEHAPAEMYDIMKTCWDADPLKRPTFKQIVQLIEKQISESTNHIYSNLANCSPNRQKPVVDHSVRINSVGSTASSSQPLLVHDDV
T1 sequence (P15056 433-726 V600E): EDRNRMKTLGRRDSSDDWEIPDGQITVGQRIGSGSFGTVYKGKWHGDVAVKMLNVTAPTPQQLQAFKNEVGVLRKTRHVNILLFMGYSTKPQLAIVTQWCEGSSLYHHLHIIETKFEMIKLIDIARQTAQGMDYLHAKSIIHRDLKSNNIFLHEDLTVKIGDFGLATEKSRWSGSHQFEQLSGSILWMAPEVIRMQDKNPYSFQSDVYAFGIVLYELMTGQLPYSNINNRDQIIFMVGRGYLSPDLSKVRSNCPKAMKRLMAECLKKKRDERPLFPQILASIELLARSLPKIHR

With `CNc1ncc2cc(-c3cc(NC(=O)NCCC(C)(C)F)c(F)cc3C)c(C)nc2n1` [Example 4, 1-(3-Fluoro-3-methylbutyl)-3-(2-fluoro-4-methyl-5-(7-methyl-2-(methylamino)pyrido[2,3-d]pyrimidin-6-yl)phenyl)urea], the IC50 is under 150 nM in data set [1], under 150 nM in data set [2], 100 to 1000 nM in data set [3] and 15 to 1100 nM in data set [5]. For the same molecule, the “IC50 shift A375 to A375res” value in data set [4] was 0.6-1.9 fold.

For `CNc1ncc2cc(-c3cc(NC(=O)NCC(O)C(C)(C)C)c(F)cc3C)c(C)nc2n1` (stereo not shown) [Example 15, 1-[2-Fluoro-4-methyl-5-(7-methyl-2-methylamino-pyrido[2,3-d]pyrimidin-6-yl)phenyl]-3-(2-hydroxy-3,3-dimethyl-butyl)urea], the IC50 in data set [1] is under 150 nM; in data set [2], under 150 nM; in data set [3], under 100 nM; in data set [5], 15 to 1100 nM. In addition, the “IC50 shift A375 to A375res” value in data set [4] is on record as 0.6-1.9 fold.

Regarding `Cc1cc(F)c(NC(=O)NCCC(C)(C)C)cc1-c1cc2cnc(NCc3cn(C)cn3)nc2nc1C` [Example 22, 1-(3,3-Dimethylbutyl)-3-(2-fluoro-4-methyl-5-(7-methyl-2-(((1-methyl-1H-imidazol-4-yl)methyl)amino)pyrido[2,3-d]pyrimidin-6-yl)phenyl)urea], the IC50 is under 150 nM in data set [1], under 150 nM in data set [2] and under 100 nM in data set [3].

As to `Cc1cc(F)c(NC(=O)NCCC2(C)CC2)cc1-c1cc2cnc(N)nc2nc1C` [Example 23, 1-(5-(2-Amino-7-methylpyrido[2,3-d]pyrimidin-6-yl)-2-fluoro-4-methylphenyl)-3-(2-(1-methylcyclopropyl)ethyl)urea], the values for the IC50 in data set [1], in data set [2] and in data set [3] were under 150 nM, under 150 nM and 100 to 1000 nM, respectively.

With `Cc1cc(F)c(NC(=O)NCCC(C)(C)F)cc1-c1cc2cnc(NCCO)nc2nc1C` [Example 29, 1-(3-Fluoro-3-methylbutyl)-3-(2-fluoro-5-(2-((2-hydroxyethyl)amino)-7-methylpyrido[2,3-d]pyrimidin-6-yl)-4-methylphenyl)urea], the figures for the IC50 in data set [1], in data set [2] and in data set [3] were under 150 nM, under 150 nM and 1000 to 10000 nM, respectively.

`COCCNc1ncc2cc(-c3cc(NC(=O)NC4CC(C)(C)C4)c(F)cc3C)c(C)nc2n1` [Example 31, 1-(3,3-Dimethylcyclobutyl)-3-(2-fluoro-5-(2-((2-methoxyethyl)amino)-7-methylpyrido[2,3-d]pyrimidin-6-yl)-4-methylphenyl)urea]: the IC50 in data set [1] is under 150 nM; in data set [2] it was under 150 nM; in data set [3], under 100 nM.

With `CNc1ncc2cc(-c3cc(NC(=O)NCCC(C)(C)C)c(F)cc3Br)c(C)nc2n1` [Example 32, 1-(4-Bromo-2-fluoro-5-(7-methyl-2-(methylamino)pyrido[2,3-d]pyrimidin-6-yl)phenyl)-3-(3,3-dimethylbutyl)urea], the IC50 in data set [1] was under 150 nM; in data set [2] it was under 150 nM; in data set [3] it was under 100 nM.

Take `CC(=O)Nc1ncc2cc(-c3cc(NC(=O)NCCC(C)(C)C)c(F)cc3C)c(C)nc2n1` [Example 33, N-(6-(5-(3-(3,3-Dimethylbutyl)ureido)-4-fluoro-2-methylphenyl)-7-methylpyrido[2,3-d]pyrimidin-2-yl)acetamide]: the values for the IC50 in data set [1], in data set [2] and in data set [3] were under 150 nM, under 150 nM and under 100 nM, respectively.

For `CNc1ncc2cc(-c3cc(NC(=O)NCCC(C)(C)C)c(F)cc3F)cnc2n1` [Example 36, 1-(2,4-Difluoro-5-(2-(methylamino)pyrido[2,3-d]pyrimidin-6-yl)phenyl)-3-(3,3-dimethylbutyl)urea methanesulfonate], the IC50 in data set [1] was under 150 nM; in data set [2], under 150 nM; in data set [3], 1000 to 10000 nM.
